# Measurements from paper PMC10665234, “Nutritional Supplementation and Enhanced Antioxidant Function by Dietary Intake of Selenoneine and Other Selenium Compounds in Red Seabream Pagrus major” (Marine Biotechnology (New York, N.y.), 2023).
# Tests used:
# Format in all cases: in vivo, red seabream Pagrus major
# red seabream = assay: Oxidation-reduction potential (ORP) in white muscle; details: 2 weeks; 1 or 2 ppm in diet
# Procedure: ORP was measured with ORP electrode (9300, Horiba, Kyoto, […]). The electrode was pierced into muscle and pressed gently until the potential stabilized for 60 s.
# [1] = Total selenium concentrations in the tissues of red seabream after feeding selenium-supplemented dry pellet (fluorometric assay with 2,3-diamino-naphthalene)
# Procedure: (§1) Red seabream fry (average body weight of 5.4 g) was obtained from private seed and seedling production company (Oita, Japan) and cultured for seven months up to average body weight of 250 g. Chemical composition of control diet was containing crude protein 50%; […]; Ca 2.3%; ash 16.0%; and phosphorus 1.5%. Each selenium-added diet was fed twice a day for 4 weeks in an amount of 1% of the average body weight. Body weight of fish in each tank was measured when fish were sampled and amount of diet was calculated according to the body weight of every sampling day. The added selenium concentrations in the diets were set in 0 ppm, 1 ppm, and 2 ppm selenium according to the previous study (Tohfuku et al. [2021]). After that, they were fed a commercial diet twice a day for 1 week. The test groups were the control group, the sodium selenite group (1 mg Se/kg feeding group and 2 mg Se/kg feeding group), the selenomethionine group (1 mg Se/kg feeding group and 2 mg Se/kg feeding group), and the selenoneine group (1 mg Se/kg feeding group and 2 mg Se/kg feeding group) were set. The number of fish raised was 15 from the start of rearing in each tank until the 2nd week, 10 from the 3rd to 4th week, and 5 in the 5th week. […] We reared red seabream by feeding of 1% dry pellet containing of sodium selenite, selenomethionine, or selenoneine of body weight twice a day for 4 weeks. After that, we replaced to 1% of commercial dry pellet of body weight twice a day for 1 week from the selenium supplementation. Average water temperature was 20.9 ℃ (19.0–23.9 ℃) and average dissolved oxygen was 7.41 mg/L. The body weight change of red seabream for 5 weeks is shown in Table S2.
# (§2) Red seabream was anesthetized by adding 2 mL of anesthetic (1/100 volume of 2-methylquinoline dissolved in ethanol) to 1 L of seawater. A small amount of an anticoagulant (heparin sodium dissolved in physiological saline; 800 units/mL) was placed in a syringe in advance, and blood was collected from the caudal peduncle of each fish. The collected blood was centrifuged at 5000 rpm for 5 min (4 °C), divided into a plasma fraction and a precipitated fraction, and stored at − 50 °C. The precipitated fraction was used for analysis as the blood cell fraction.
# Total selenium concentration was determined by fluorometric assay with 2,3-diamino-naphthalene, after digestion in 1.5 mL of nitric acid and perchloric acid (1:2 in volume) at 200–220 ℃ (Watkinson [1966]; Yamashita and Yamashita [2010]).
# [2] = Selenoneine concentration in white muscle and blood cell by HPLC-ICP-MS (82Se); details: fish cultured for 4 weeks
# Procedure: as §1, §2
# Selenoneine was separated by chromatography using a Shodex GF-310 column (4.5 mm × 150 mm; Showa Denko, Tokyo, Japan) equilibrated with 100 mM ammonium formate buffer containing 0.1% (w/v) Igepal CA-630 (MP Biomedicals, CA, USA). The injection volume was at 10 μL. The mobile phase delivered at 0.5 mL/min isocratically. ^82Se was detected with high performance liquid chromatography inductively coupled plasma mass spectrometry (HPLC-ICP-MS; Agilent 1100 Series and Agilent 7500 Series, Agilent Technology) (Yamashita and Yamashita [2010]). During separation, selenoneine was eluted at a retention time of 200 s, and the selenium concentration was determined using selenoneine as a standard.
# [3] = 5 weeks (4 weeks supplementation, then 1 week commercial diet), diet 1 mg Se/kg added
# [4] = 5 weeks (4 weeks supplementation, then 1 week commercial diet), diet 2 mg Se/kg added
structure (smiles),measurement,setting,value
"C[Se]CC[C@H](N)C(=O)O [Selenomethionine, Seleno-L-methionine]",ORP in white muscle compared to control,red seabream,reduced ORP
"O=[Se]([O-])[O-].[Na+].[Na+] [Sodium selenite, reference compound]","Total selenium content, blood cell","[1]; 2 weeks, diet 1 mg Se/kg added",2.44 ± 0.27 mg Se/kg
same,"Total selenium content, blood cell","[1]; 2 weeks, diet 2 mg Se/kg added",2.49 ± 0.29 mg Se/kg
same,"Total selenium content, blood cell","[1]; 4 weeks, diet 1 mg Se/kg added",3.11 ± 0.40 mg Se/kg
same,"Total selenium content, blood cell","[1]; 4 weeks, diet 2 mg Se/kg added",2.86 ± 0.17 mg Se/kg
same,"Total selenium content, blood cell",[1]; [3],3.18 ± 0.76 mg Se/kg
same,"Total selenium content, blood cell",[1]; [4],3.13 ± 0.48 mg Se/kg
same,"Total selenium content, brain","[1]; 2 weeks, diet 1 mg Se/kg added",0.49 ± 0.03 mg Se/kg
same,"Total selenium content, brain","[1]; 2 weeks, diet 2 mg Se/kg added",0.50 ± 0.03 mg Se/kg
same,"Total selenium content, brain","[1]; 4 weeks, diet 1 mg Se/kg added",0.54 ± 0.07 mg Se/kg
same,"Total selenium content, brain","[1]; 4 weeks, diet 2 mg Se/kg added",0.45 ± 0.10 mg Se/kg
same,"Total selenium content, brain",[1]; [3],0.35 ± 0.09 mg Se/kg
same,"Total selenium content, brain",[1]; [4],0.33 ± 0.11 mg Se/kg
same,Tissues in which total selenium was accumulated compared with the control group,[1]; diet 1 mg Se/kg and 2 mg Se/kg,"white muscle, kidney, and hepatopancreas"
same,"Total selenium content, heart","[1]; 2 weeks, diet 1 mg Se/kg added",1.05 ± 0.20 mg Se/kg
same,"Total selenium content, heart","[1]; 2 weeks, diet 2 mg Se/kg added",0.99 ± 0.10 mg Se/kg
same,"Total selenium content, heart","[1]; 4 weeks, diet 1 mg Se/kg added",1.27 ± 0.11 mg Se/kg
same,"Total selenium content, heart","[1]; 4 weeks, diet 2 mg Se/kg added",1.22 ± 0.08 mg Se/kg
same,"Total selenium content, heart",[1]; [3],1.20 ± 0.09 mg Se/kg
same,"Total selenium content, heart",[1]; [4],1.04 ± 0.07 mg Se/kg
same,"Total selenium content, hepatopancreas","[1]; 2 weeks, diet 1 mg Se/kg added",1.12 ± 0.16 mg Se/kg
same,"Total selenium content, hepatopancreas","[1]; 2 weeks, diet 2 mg Se/kg added",1.31 ± 0.15 mg Se/kg
same,"Total selenium content, hepatopancreas","[1]; 4 weeks, diet 1 mg Se/kg added",1.40 ± 0.19 mg Se/kg
same,"Total selenium content, hepatopancreas","[1]; 4 weeks, diet 2 mg Se/kg added",1.45 ± 0.13 mg Se/kg
same,"Total selenium content, hepatopancreas",[1]; [3],1.31 ± 0.23 mg Se/kg
same,"Total selenium content, hepatopancreas",[1]; [4],1.28 ± 0.18 mg Se/kg
same,"Total selenium content, kidney","[1]; 2 weeks, diet 1 mg Se/kg added",2.46 ± 0.31 mg Se/kg
same,"Total selenium content, kidney","[1]; 2 weeks, diet 2 mg Se/kg added",2.50 ± 0.19 mg Se/kg
same,"Total selenium content, kidney","[1]; 4 weeks, diet 1 mg Se/kg added",3.07 ± 0.24 mg Se/kg
same,"Total selenium content, kidney","[1]; 4 weeks, diet 2 mg Se/kg added",3.06 ± 0.34 mg Se/kg
same,"Total selenium content, kidney",[1]; [3],2.60 ± 0.32 mg Se/kg
same,"Total selenium content, kidney",[1]; [4],2.71 ± 0.39 mg Se/kg
same,"Total selenium content, spleen","[1]; 2 weeks, diet 1 mg Se/kg added",2.58 ± 0.16 mg Se/kg
same,"Total selenium content, spleen","[1]; 2 weeks, diet 2 mg Se/kg added",2.80 ± 0.25 mg Se/kg
same,"Total selenium content, spleen","[1]; 4 weeks, diet 1 mg Se/kg added",3.09 ± 0.47 mg Se/kg
same,"Total selenium content, spleen","[1]; 4 weeks, diet 2 mg Se/kg added",2.94 ± 0.22 mg Se/kg
same,"Total selenium content, spleen",[1]; [3],2.80 ± 0.28 mg Se/kg
same,"Total selenium content, spleen",[1]; [4],2.47 ± 0.35 mg Se/kg
same,"Total selenium content, white muscle","[1]; 2 weeks, diet 1 mg Se/kg added",0.39 ± 0.02 mg Se/kg
same,"Total selenium content, white muscle","[1]; 2 weeks, diet 2 mg Se/kg added",0.40 ± 0.02 mg Se/kg
same,"Total selenium content, white muscle","[1]; 4 weeks, diet 1 mg Se/kg added",0.39 ± 0.01 mg Se/kg
same,"Total selenium content, white muscle","[1]; 4 weeks, diet 2 mg Se/kg added",0.39 ± 0.03 mg Se/kg
same,"Total selenium content, white muscle",[1]; [3],0.38 ± 0.06 mg Se/kg
same,"Total selenium content, white muscle",[1]; [4],0.36 ± 0.05 mg Se/kg
same,"Selenoneine concentration, blood cell",[2]; diet 1 mg Se/kg added,1.98 ± 0.39 mg Se/kg
same,"Selenoneine concentration, blood cell",[2]; diet 2 mg Se/kg added,1.91 ± 0.43 mg Se/kg
same,"Selenoneine concentration, white muscle",[2]; diet 1 mg Se/kg added,0.019 ± 0.002 mg Se/kg
same,"Selenoneine concentration, white muscle",[2]; diet 2 mg Se/kg added,0.020 ± 0.003 mg Se/kg
same,ORP in white muscle compared to control,red seabream,reduced ORP
